Results from patent US10301256B2, “Sulfonamide and sulfinamide prodrugs of fumarates and their use in treating various diseases” (Alkermes Pharma Ireland Limited, priority 2014, dated 2019).
Counter-ions that a name gives are not always drawn.

What was measured:
[1] = Chemical stability of MMF prodrugs in pH 8 phosphate buffer; format: physicochemical; conditions: 50 mM buffer phosphate pH 8, 37° C., HPLC-UV, first-order decay
Procedure: Stock solutions of the compounds in acetonitrile or acetonitrile/MeOH were prepared at 0.05M. A 0.010 mL aliquot of the stock was spiked into 1 mL of 50 mM buffer phosphate pH 8 and incubated at 37° C. Typically, aliquots (0.010 mL) were sampled at different time points and immediately injected in the HPLC with UV detection (211 nm). The peak areas corresponding to the compounds were plotted against time and the data were fitted to a first-order mono-exponential decay where the rate constant and the half-life were determined from the slope (Table 2).

[2] = Physical stability in crystalline form by thermogravimetric analysis (TGA); format: physicochemical; conditions: 55° C.; for weight loss vs time (TGA): crystalline form
Procedure: The physical stability of compounds of the present invention and dimethyl fumarate (DMF) were measured via thermogravimetric analysis (TGA).

With `COC(=O)/C=C/C(=O)OCCN(C)S(C)(=O)=O` [Compound 1, Methyl (2-(N-methylmethylsulfonamido)ethyl) fumarate] the “pH 8 (t½, min)” value [1] was 187 min and the “weight loss vs time (TGA)” value [2] was “no change”.

For `COC(=O)/C=C/C(=O)OCCNS(C)(=O)=O` [Compound 2, Methyl (2-(methylsulfonamido)ethyl) fumarate], the “pH 8 (t½, min)” value [1] was 143.5 min and the “weight loss vs time (TGA)” value [2] was “no change”.

For `COC(=O)/C=C/C(=O)OCCN1CCCS1(=O)=O` [Compound 6, 2-(1,1-Dioxidoisothiazolidin-2-yl)ethyl methyl fumarate], the “pH 8 (t½, min)” value [1] was 202 min.

With `COC(=O)/C=C/C(=O)OC` [DMF, dimethyl fumarate, reference compound] the “weight loss (TGA)” value ([2]; in less than 2 hours) was about 100%.
